From US10611731B2, “5-methyl-6-phenyl-4,5-dihydro-2H-pyridazin-3-one derivative” (OTSUKA PHARMACEUTICAL CO., LTD., priority 2016, dated 2020) come the findings set out here.

Broadly, the melting point is the temperature, or range, at which the solid turns liquid.

Series [1] concerns human childhood brain tumor cell lines (PFSK-1). Put plainly: Growth inhibitory activity against PFSK-1 cells (WST-8, Cell Counting Kit-8). Type of series: cell-based. As to conditions: Homo sapiens, 72 h, 3 days incubation with test compound, WST-8 OD 450/630 nm, read-out: IC50 (concentration inhibiting 50% of the cell growth). In short, it runs like this: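 Cells seeded in RPMI 1640 with 10% FBS and preincubated 24 h at 37 °C, 5% CO2, then exposed to compound for 3 days. IC50 (nM) from growth relative to untreated control.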

For the molecule `C=Cc1c(OCCCCO)ccc(C2=NNC(=O)CC2C)c1F` (centres unmarked) [Example 89, 6-[2-Fluoro-4-(4-hydroxybutoxy)-3-vinylphenyl]-5-methyl-4,5-dihydro-2H-pyridazin-3-one], the melting point lay within 106.4 to 107.4 °C. For the same molecule, in series [1], the IC50 was 4.9 nM.
